US7902224B2, “Tetrahydro-naphthalene derivatives as glucocorticoid receptor modulators” (Glaxo Group Limited, priority 2004, dated 2011)

Legend:
[1] = test system: MMTV driven gene expression; assay: Glucocorticoid mediated transactivation of MMTV driven gene expression (luciferase reporter); format: cell-based, Human; settings: A549 or MG63 cells, 6 hr incubation
Text: Glucocorticoid Mediated Transactivation of MMTV Driven Gene Expression
Human A549 lung epithelial cells or human MG63 osteosarcoma were engineered to contain a renialla luciferase gene under the control of the distal region of the LTR from the mouse mammary tumour virus as previously described (Austin, R. H., Maschera, B., Walker, A., Fairbairn, L., Meldrum, E., Farrow, S. and Uings, I. J. Mometasone furoate is a less specific glucocorticoid than fluticasone propionate. European Respiratory Journal 2002 20 1386-1392).
Compounds were solvated and diluted in DMSO, and transferred directly into assay plates such that the final concentration of DMSO was 0.7%. Following the addition of cells (40K per well), plates were incubated for 6 hr. Luciferase activity was determined using the Firelight kit (Packard, Pangbourne, UK).

NFkB activity = assay: Glucocorticoid mediated transrepression of NFkB activity (A549 ELAM promoter alkaline phosphatase reporter, TNFα stimulated); format: cell-based; settings: A549 cells, 3 ng/ml human recombinant TNFα, 16 hours; read-out: pIC50 NFkB assay (converted)
Text: Glucocorticoid mediated Transrepression of NFkB activity.
Human A549 lung epithelial cells were engineered to contain a secreted placental alkaline phosphatase gene under the control of the distal region of the NFkB dependent ELAM promoter as previously described in Ray, K. P., Farrow, S., Daly, M., Talabot, F. and Searle, N. “Induction of the E-selectin promoter by interleukin 1 and tumour necrosis factor alpha, and inhibition by glucocorticoids” Biochemical Journal. 1997 328 707-15.
Compounds were solvated and diluted in DMSO, and transferred directly into assay plates such that the final concentration of DMSO was 0.7%. Following the addition of cells (40K per well), plates were incubated for 1 hr prior to the addition of 3 ng/ml human recombinant TNFα. Following continued incubation for 16 hours, alkaline phosphatase activity was determined by measuring the change in optical density at 405 nm with time following the addition of 0.7 volumes of assay buffer (1 mg/ml p-nitrophenylphosphate dissolved in 1 M diethanolamine, 0.28M NaCl, 0.5 mM MgCl2).

glucocorticoid receptor = target: T1, glucocorticoid receptor (Homo sapiens, UniProt P04150); assay: Glucocorticoid receptor binding assay (fluorescence polarisation competition); settings: displacement of fluorescent glucocorticoid, 22° C., 2 hours; read-out: pIC50 glucocorticoid receptor binding assay (converted)
T1 construct: purchased Pan Vera (Madison, Wis., USA)
T1 sequence (P04150 1-777): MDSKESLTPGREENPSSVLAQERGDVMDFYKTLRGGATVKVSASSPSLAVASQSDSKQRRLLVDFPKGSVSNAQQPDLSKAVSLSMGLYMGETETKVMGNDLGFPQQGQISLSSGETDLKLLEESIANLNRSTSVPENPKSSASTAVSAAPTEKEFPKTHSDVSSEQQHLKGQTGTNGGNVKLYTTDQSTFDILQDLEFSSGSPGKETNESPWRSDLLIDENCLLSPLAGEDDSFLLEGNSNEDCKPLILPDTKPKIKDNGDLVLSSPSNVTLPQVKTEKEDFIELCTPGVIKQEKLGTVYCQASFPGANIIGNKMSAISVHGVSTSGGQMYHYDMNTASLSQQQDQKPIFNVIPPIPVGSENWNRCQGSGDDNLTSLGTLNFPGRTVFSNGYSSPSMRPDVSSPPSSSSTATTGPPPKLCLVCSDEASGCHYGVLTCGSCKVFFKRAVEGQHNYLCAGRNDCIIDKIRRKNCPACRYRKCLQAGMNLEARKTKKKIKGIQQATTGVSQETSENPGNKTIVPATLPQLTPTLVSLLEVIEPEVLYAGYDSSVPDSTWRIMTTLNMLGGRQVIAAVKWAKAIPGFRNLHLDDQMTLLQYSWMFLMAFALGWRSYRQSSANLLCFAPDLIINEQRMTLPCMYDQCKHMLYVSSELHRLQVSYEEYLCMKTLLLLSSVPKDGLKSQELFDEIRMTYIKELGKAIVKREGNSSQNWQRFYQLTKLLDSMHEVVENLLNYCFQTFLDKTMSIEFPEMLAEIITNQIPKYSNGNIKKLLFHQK
Procedure: Glucocorticoid Receptor Binding Assay
The ability of compounds to bind to the glucocorticoid receptor was determined by assessing their ability to compete with fluorescent-labelled glucocortioid using a kit supplied by Pan Vera (Madison, Wis., USA) or using in house reagents. Compounds were solvated and diluted in DMSO, and transferred directly into assay plates. Fluorescent glucocorticoid and partially purified glucocorticoid receptor with a stabilisation peptide were added to the plates and incubated at 22° C. for 2 hours in the dark. Binding of the compound was assessed by analysing the displacement of fluorescent ligand by measuring the decrease in fluorescence polarisation signal from the mixture.

Compound: CC1(CC(O)(CNc2cccc3ncccc23)C(F)(F)F)CCCc2ccccc21 (single isomer, unassigned) [Example 1-D1E1, 1,1,1-Trifluoro-3-(1-methyl-1,2,3,4-tetrahydro-1-naphthalenyl)-2-[(5-guinolinylamino)methyl]-2-propanol]
- efficacy in the MMTV transactivation assay compared to the NFkB assay [1]: reduced efficacy
- IC50 (NFkB activity): < 31.6 nM
- IC50 (glucocorticoid receptor): < 100 nM

Compound: Cc1ccc2c(NCC(O)(CC3(C)CCCc4ccccc43)C(F)(F)F)cccc2n1 (single isomer, unassigned) [Example 2-D1, 1,1,1-Trifluoro-3-[(2-methyl-5-quinolinyl)amino]-2-[(1-methyl-1,2,3,4-tetrahydro-1-naphthalenyl)methyl]-2-propanol]
- efficacy in the MMTV transactivation assay compared to the NFkB assay [1]: reduced efficacy
- IC50 (NFkB activity): < 31.6 nM
- IC50 (glucocorticoid receptor): < 100 nM

Compound: Cc1ccc2c(NCC(O)(CC3(C)CCCc4ccccc43)C(F)(F)F)cccc2n1 (single isomer, unassigned) [Example 2-D1E1, 1,1,1-Trifluoro-3-[(2-methyl-5-quinolinyl)amino]-2-[(1-methyl-1,2,3,4-tetrahydro-1-naphthalenyl)methyl]-2-propanol]
- efficacy in the MMTV transactivation assay compared to the NFkB assay [1]: reduced efficacy

Compound: Cc1ccc2c(NCC(O)(CC3(C)CCCc4ccccc43)C(F)(F)F)cccc2n1 (single isomer, unassigned) [Example 2-D2, 1,1,1-Trifluoro-3-[(2-methyl-5-quinolinyl)amino]-2-[(1-methyl-1,2,3,4-tetrahydro-1-naphthalenyl)methyl]-2-propanol]
- efficacy in the MMTV transactivation assay compared to the NFkB assay [1]: reduced efficacy

Compound: Cc1ccc2c(NCC(O)(CC3(C)CCCc4ccccc43)C(F)(F)F)cccc2n1 (single isomer, unassigned) [Example 2-D2E1, 1,1,1-Trifluoro-3-[(2-methyl-5-quinolinyl)amino]-2-[(1-methyl-1,2,3,4-tetrahydro-1-naphthalenyl)methyl]-2-propanol]
- efficacy in the MMTV transactivation assay compared to the NFkB assay [1]: reduced efficacy

Compound: Cc1ccc2c(NCC(O)(CC3(C)CCCc4ccccc43)C(F)(F)F)cccc2n1 (single isomer, unassigned) [Example 2-D2E2, 1,1,1-Trifluoro-3-[(2-methyl-5-quinolinyl)amino]-2-[(1-methyl-1,2,3,4-tetrahydro-1-naphthalenyl)methyl]-2-propanol]
- efficacy in the MMTV transactivation assay compared to the NFkB assay [1]: reduced efficacy

Compound: CC1(CC(O)(CNc2cccc3cnccc23)C(F)(F)F)CCCc2ccccc21 (single isomer, unassigned) [Example 3-D1E2, 1,1,1-Trifluoro-3-(5-isoguinolinylamino)-2-[(1-methyl-1,2,3,4-tetrahydro-1-naphthalenyl)methyl]-2-propanol]
- efficacy in the MMTV transactivation assay compared to the NFkB assay [1]: reduced efficacy
- IC50 (NFkB activity): < 31.6 nM

Compound: CC1(CC(O)(CNc2cccc3cnccc23)C(F)(F)F)CCCc2ccccc21 (single isomer, unassigned) [Example 3-D2E1, 1,1,1-Trifluoro-3-(5-isoguinolinylamino)-2-[(1-methyl-1,2,3,4-tetrahydro-1-naphthalenyl)methyl]-2-propanol]
- efficacy in the MMTV transactivation assay compared to the NFkB assay [1]: reduced efficacy
- IC50 (glucocorticoid receptor): < 100 nM

Compound: CCC1(CC(O)(CNc2cccc3cnccc23)C(F)(F)F)CCCc2ccccc21 (single isomer, unassigned) [Example 4-D1, 3-(1-Ethyl-1,2,3,4-tetrahydro-1-naphthalenyl)-1,1,1-trifluoro-2-[(5-isoquinolinylamino)methyl]-2-propanol]
- efficacy in the MMTV transactivation assay compared to the NFkB assay [1]: reduced efficacy
- IC50 (glucocorticoid receptor): < 100 nM

Compound: CCC1(CC(O)(CNc2cccc3cnccc23)C(F)(F)F)CCCc2ccccc21 (single isomer, unassigned) [Example 4-D1E2, 3-(1-Ethyl-1,2,3,4-tetrahydro-1-naphthalenyl)-1,1,1-trifluoro-2-[(5-isoquinolinylamino)methyl]-2-propanol]
- efficacy in the MMTV transactivation assay compared to the NFkB assay [1]: reduced efficacy
- IC50 (NFkB activity): < 31.6 nM

Compound: CCC1(CC(O)(CNc2cccc3nc(C)ccc23)C(F)(F)F)CCCc2ccccc21 (single isomer, unassigned) [Example 5-D1, 3-(1-Ethyl-1,2,3,4-tetrahydro-1-naphthalenyl)-1,1,1-trifluoro-2-[[(2-methyl-5-quinolinyl)amino]methyl]-2-propanol]
- efficacy in the MMTV transactivation assay compared to the NFkB assay [1]: reduced efficacy
- IC50 (NFkB activity): < 31.6 nM
- IC50 (glucocorticoid receptor): < 100 nM

Compound: CCC1(CC(O)(CNc2cccc3nc(C)ccc23)C(F)(F)F)CCCc2ccccc21 (single isomer, unassigned) [Example 5-D1E1, 3-(1-Ethyl-1,2,3,4-tetrahydro-1-naphthalenyl)-1,1,1-trifluoro-2-[[(2-methyl-5-quinolinyl)amino]methyl]-2-propanol]
- efficacy in the MMTV transactivation assay compared to the NFkB assay [1]: reduced efficacy

Compound: CCC1(CC(O)(CNc2cccc3nc(C)ccc23)C(F)(F)F)CCCc2ccccc21 (single isomer, unassigned) [Example 5-D2, 3-(1-Ethyl-1,2,3,4-tetrahydro-1-naphthalenyl)-1,1,1-trifluoro-2-[[(2-methyl-5-quinolinyl)amino]methyl]-2-propanol]
- efficacy in the MMTV transactivation assay compared to the NFkB assay [1]: reduced efficacy

Compound: CCC1(CC(O)(CNc2cccc3nc(C)ccc23)C(F)(F)F)CCCc2ccccc21 (single isomer, unassigned) [Example 5-D2E1, 3-(1-Ethyl-1,2,3,4-tetrahydro-1-naphthalenyl)-1,1,1-trifluoro-2-[[(2-methyl-5-quinolinyl)amino]methyl]-2-propanol]
- efficacy in the MMTV transactivation assay compared to the NFkB assay [1]: reduced efficacy

Compound: CC1(CC(O)(CNc2cccc3ncccc23)C(F)(F)F)CCCc2ccccc21 (stereo not shown) [Example 1-D1, 1,1,1-Trifluoro-3-(1-methyl-1,2,3,4-tetrahydro-1-naphthalenyl)-2-[(5-guinolinylamino)methyl]-2-propanol]
- efficacy in the MMTV transactivation assay compared to the NFkB assay [1]: reduced efficacy
- IC50 (NFkB activity): < 31.6 nM
- IC50 (glucocorticoid receptor): < 100 nM

Compound: CC1(CC(O)(CNc2cccc3cnccc23)C(F)(F)F)CCCc2ccccc21 (stereo not shown) [Example 3-D1, 1,1,1-Trifluoro-3-(5-isoguinolinylamino)-2-[(1-methyl-1,2,3,4-tetrahydro-1-naphthalenyl)methyl]-2-propanol]
- efficacy in the MMTV transactivation assay compared to the NFkB assay [1]: reduced efficacy
- IC50 (NFkB activity): < 31.6 nM
- IC50 (glucocorticoid receptor): < 100 nM

Compound: CC1(CC(O)(CNc2cccc3cnccc23)C(F)(F)F)CCCc2ccccc21 (stereo not shown) [Example 3-D2, 1,1,1-Trifluoro-3-(5-isoguinolinylamino)-2-[(1-methyl-1,2,3,4-tetrahydro-1-naphthalenyl)methyl]-2-propanol]
- efficacy in the MMTV transactivation assay compared to the NFkB assay [1]: reduced efficacy

Compound: CCC1(CC(O)(CNc2cccc3ncccc23)C(F)(F)F)CCCc2ccccc21 (stereo not shown) [Example 6-D1, 3-(1-Ethyl-1,2,3,4-tetrahydro-1-naphthalenyl)-1,1,1-trifluoro-2-[(5-guinolinylamino)methyl]-2-propanol]
- efficacy in the MMTV transactivation assay compared to the NFkB assay [1]: reduced efficacy
- IC50 (NFkB activity): < 31.6 nM
- IC50 (glucocorticoid receptor): < 100 nM
